In US20230017045A1, “PYRIDINE AND PYRIMIDINE CARBOXYLATE HERBICIDES AND METHODS OF USE THEREOF” (Dow AgroSciences LLC, priority 2017, published 2023):
Like-named read-outs stand apart in the source and are kept apart here.

Tested on: test plant species
Assay: Post-emergent herbicidal activity test (greenhouse, foliar spray, visual growth reduction)
Type: in vivo
Conditions: post-emergence, 336 h, 140 g ai/ha
Procedure, shortened: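 Visual percent injury (0-100) rated 14 d after treatment, relative to nontreated and solvent-blank plants. Test plants at first or second true leaf stage received an overhead track-sprayer application at 187 L/ha. Compounds were formulated in aqueous acetone/DMSO carrier containing crop oil concentrate and X-77 surfactant.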

[1] = ALOMY: blackgrass (Alopecurus myosuroides), 14 days after application, read-out: Visual Growth Reduction (%) 14 Days After Application, ALOMY
[2] = AMARE: redroot pigweed (Amaranthus retroflexus), 14 days after application, read-out: Visual Growth Reduction (%) 14 Days After Application, AMARE
[3] = AVEFA: wild oat (Avena fatua), 14 days after application, read-out: Visual Growth Reduction (%) 14 Days After Application, AVEFA
[4] = CHEAL: lambsquarters (Chenopodium album), 14 days after application, read-out: Visual Growth Reduction (%) 14 Days After Application, CHEAL
[5] = CIRAR: canada thistle (Cirsium arvense), 14 days after application, read-out: Visual Growth Reduction (%) 14 Days After Application, CIRAR
[6] = CYPES: yellow nutsedge (Cyperus esculentus), 14 days after application, read-out: Visual Growth Reduction (%) 14 Days After Application, CYPES
[7] = DIGSA: crabgrass (Digitaria sanguinalis), 14 days after application, read-out: Visual Growth Reduction (%) 14 Days After Application, DIGSA
[8] = ECHCG: barnyardgrass (Echinochloa crus-galli), 14 days after application, read-out: Visual Growth Reduction (%) 14 Days After Application, ECHCG
[9] = IPOHE: ivy-leaf morning glory (Ipomoea hederacea), 14 days after application, read-out: Visual Growth Reduction (%) 14 Days After Application, IPOHE
[10] = KCHSC: kochia (Bassia scoparia), 14 days after application, read-out: Visual Growth Reduction (%) 14 Days After Application, KCHSC
[11] = ORYSA: rice (Oryza sativa), 14 days after application, read-out: Visual Growth Reduction (%) 14 Days After Application, ORYSA
[12] = SETFA: giant foxtail (Setaria faberi), 14 days after application, read-out: Visual Growth Reduction (%) 14 Days After Application, SETFA
[13] = SORVU: grain sorghum (Sorghum vulgare), 14 days after application, read-out: Visual Growth Reduction (%) 14 Days After Application, SORVU
[14] = STEME: common chickweed (Stellaria media), 14 days after application, read-out: Visual Growth Reduction (%) 14 Days After Application, STEME
[15] = TRZAS: wheat, spring (Triticum aestivum), 14 days after application, read-out: Visual Growth Reduction (%) 14 Days After Application, TRZAS
[16] = blackgrass (Alopecurus myosuroides), 14 Days After Application, read-out: Visual Growth Reduction (%) ALOMY
[17] = canada thistle (Cirsium arvense), 14 Days After Application, read-out: Visual Growth Reduction (%) CIRAR
[18] = crabgrass (Digitaria sanguinalis), 14 Days After Application, read-out: Visual Growth Reduction (%) DIGSA
[19] = lambsquarters (Chenopodium album), 14 Days After Application, read-out: Visual Growth Reduction (%) CHEAL
[20] = redroot pigweed (Amaranthus retroflexus), 14 Days After Application, read-out: Visual Growth Reduction (%) AMARE
[21] = wild oat (Avena fatua), 14 Days After Application, read-out: Visual Growth Reduction (%) AVEFA
[22] = yellow nutsedge (Cyperus esculentus), 14 Days After Application, read-out: Visual Growth Reduction (%) CYPES

SMILES | pest or weed control at 140 g/ha [1] | pest or weed control at 140 g/ha [2] | pest or weed control at 140 g/ha [3] | pest or weed control at 140 g/ha [4] | pest or weed control at 140 g/ha [5] | pest or weed control at 140 g/ha [6] | pest or weed control at 140 g/ha [7] | pest or weed control at 140 g/ha [8] | pest or weed control at 140 g/ha [9] | pest or weed control at 140 g/ha [10] | pest or weed control at 140 g/ha [11] | pest or weed control at 140 g/ha [12] | pest or weed control at 140 g/ha [13] | pest or weed control at 140 g/ha [14] | pest or weed control at 140 g/ha [15] | pest or weed control at 140 g/ha [16] | pest or weed control at 140 g/ha [18] | pest or weed control at 140 g/ha [19] | pest or weed control at 140 g/ha [20] | pest or weed control at 140 g/ha [21] | also measured
COC(=O)c1nc(-c2ccc(C(C)O)cc2Cl)ccc1Cl (stereo not shown) [F1, methyl 3-chloro-6-(2-chloro-4-(1-hydroxyethyl)phenyl)picolinate] | 0 to 29% | 0 to 29% | 0 to 29% | 0 to 29% | 0 to 29% | 45 to 59% | 0 to 29% | – | – | – | – | – | – | – | – | – | – | – | – | – | pest or weed control at 140 g/ha (barnyardgrass (Echinochloa crus-galli), 14 Days After Application, read-out: Visual Growth Reduction (%) ECHCG): 0 to 29%; pest or weed control at 140 g/ha (common chickweed (Stellaria media), 14 Days After Application, read-out: Visual Growth Reduction (%) STEME): 0 to 29%; pest or weed control at 140 g/ha (giant foxtail (Setaria faberi), 14 Days After Application, read-out: Visual Growth Reduction (%) SETFA): 0 to 29%; pest or weed control at 140 g/ha (ivy-leaf morning glory (Ipomoea hederacea), 14 Days After Application, read-out: Visual Growth Reduction (%) IPOHE): 0 to 29%; pest or weed control at 140 g/ha (johnsongrass (Sorghum vulgare), 14 Days After Application, read-out: Visual Growth Reduction (%) SORVU): 0 to 29%; pest or weed control at 140 g/ha (kochia (Bassia scoparia), 14 Days After Application, read-out: Visual Growth Reduction (%) KCHSC): 0 to 29%; pest or weed control at 140 g/ha (rice (Oryza sativa), 14 Days After Application, read-out: Visual Growth Reduction (%) ORYSA): 0 to 29%; pest or weed control at 140 g/ha (wheat, spring (Triticum aestivum), 14 Days After Application, read-out: Visual Growth Reduction (%) TRZAS): 0 to 29%
COC(=O)c1nc(-c2ccc(C(F)(F)F)cc2C)c(F)cc1F [F376, Methyl 3,5-difluoro-6-(2-methyl-4-(trifluoromethyl)phenyl)picolinate] | – | – | – | – | – | – | – | 0 to 29% | 95 to 100% | 45 to 59% | 0 to 29% | 60 to 74% | 85 to 94% | 0 to 29% | 0 to 29% | 0 to 29% | 60 to 74% | 85 to 94% | 95 to 100% | 0 to 29% | pest or weed control at 140 g/ha [17]: 60 to 74%; pest or weed control at 140 g/ha [22]: 0 to 29%
O=C(O)c1nc(-c2nc(Cl)c(C(F)(F)F)cc2Cl)ccc1Cl [F225, 3′,5,6′-Trichloro-5'-(trifluoromethyl)-[2,2′-bipyridine]-6-carboxylic acid] | – | – | – | – | – | – | – | 95 to 100% | 95 to 100% | 95 to 100% | 85 to 94% | 95 to 100% | 95 to 100% | 45 to 59% | 75 to 84% | 45 to 59% | 95 to 100% | 95 to 100% | 95 to 100% | 95 to 100% | pest or weed control at 140 g/ha [17]: 85 to 94%; pest or weed control at 140 g/ha [22]: 45 to 59%
COC(=O)c1nc(-c2ccc(Cl)c(OC)c2F)c(F)c(Cl)c1Cl [F74, Methyl 3,4-dichloro-6-(4-chloro-2-fluoro-3-methoxyphenyl)-5-fluoropicolinate] | 0 to 29% | 0 to 29% | 0 to 29% | 30 to 44% | 0 to 29% | 0 to 29% | 0 to 29% | 0 to 29% | 0 to 29% | – | 0 to 29% | 0 to 29% | 0 to 29% | 0 to 29% | 0 to 29% | – | – | – | – | – | –
COC(=O)c1cccc(-c2ccc(C(F)(F)F)cc2Cl)n1 [F55, Methyl 6-(2-chloro-4-(trifluoromethyl)phenyl)picolinate] | 0 to 29% | 95 to 100% | 0 to 29% | 60 to 74% | 0 to 29% | 0 to 29% | 0 to 29% | 0 to 29% | 30 to 44% | 0 to 29% | 0 to 29% | 0 to 29% | 0 to 29% | 0 to 29% | 0 to 29% | – | – | – | – | – | –
O=C(O)c1nc(-c2ccc(C(F)(F)F)c(F)c2)ccc1Cl [F315, 3-Chloro-6-(3-fluoro-4-(trifluoromethyl)phenyl) picolinic acid] | – | – | – | – | – | – | – | 0 to 29% | 95 to 100% | 0 to 29% | 0 to 29% | 60 to 74% | 85 to 94% | 0 to 29% | 60 to 74% | 0 to 29% | 75 to 84% | 60 to 74% | 60 to 74% | 0 to 29% | pest or weed control at 140 g/ha [17]: 60 to 74%; pest or weed control at 140 g/ha [22]: 60 to 74%
O=C(O)c1nc(-c2ccc(SC(F)(F)F)cc2Cl)c(F)cc1Cl [F131, 3-Chloro-6-(2-chloro-4-((trifluoromethyl)thio)phenyl)-5-fluoropicolinic acid] | 45 to 59% | 95 to 100% | 75 to 84% | 95 to 100% | 95 to 100% | 0 to 29% | 95 to 100% | 60 to 74% | 95 to 100% | 95 to 100% | 30 to 44% | 85 to 94% | 85 to 94% | 0 to 29% | 60 to 74% | – | – | – | – | – | –
COC(=O)c1nc(-c2ccc(N)cc2F)c(F)cc1Cl [F348, Methyl 6-(4-amino-2-fluorophenyl)-3-chloro-5-fluoropicolinate] | – | – | – | – | – | – | – | 0 to 29% | 0 to 29% | 0 to 29% | 0 to 29% | 0 to 29% | 0 to 29% | 0 to 29% | 0 to 29% | 0 to 29% | 0 to 29% | 0 to 29% | 0 to 29% | 0 to 29% | pest or weed control at 140 g/ha [22]: 0 to 29%
O=C(O)c1nc(-c2ccc(C(F)(F)F)cc2Cl)ccc1Cl [F61, 3-chloro-6-(2-chloro-4-(trifluoromethyl)phenyl)picolinic acid] | 60 to 74% | 95 to 100% | 60 to 74% | 95 to 100% | 85 to 94% | 0 to 29% | 95 to 100% | 85 to 94% | 95 to 100% | 85 to 94% | 45 to 59% | 85 to 94% | 85 to 94% | 0 to 29% | 85 to 94% | – | – | – | – | – | –
